Experimental data reported in patent US5750354A, “Lipoxin transport system and uses therefor” (priority 1994, dated 1998).
Where “and” joins values, the source holds several entries; their conditions need not be identical. Equal values may be shown once. Entries after “also recorded” stand apart in the source; their conditions may differ.

Legend:
human neutrophils [1] = assay: [3H]LXA4 methyl ester influx into human neutrophils; format: cell-based
Description: Incubations were performed at 37° C. in capped, plastic tubes (Falcon Plastics, Oxnard, Calif.) under various experimental conditions (neutrophils 15-20×10^6 /ml). […] At stated intervals, duplicate aliquots of the cell suspensions were layered onto 0.5 ml of silicone oil (Versilube F-5, General Electric Corp., Waterford, N.Y.) contained in 1.5 ml plastic tubes and centrifuged for 1 min at 8,000 g in a microcentrifuge (Beckman Instruments, Fullerton, Calif.).
The aqueous and oil phases were aspirated and discarded. […] Influx is expressed here as fmol/10^6 cells/min whereas flux rates in all previous work from our laboratory (L.S.) have been reported in meq/liter of cell water.min.
(§1) Influx rates were calculated by fitting the data points to a single exponential equation (Eq. 1). Results have been taken from three experiments based upon duplicate determinations. […] Specific binding was taken as the difference between total and non-specific binding. […] Results are from three separate experiments, each performed in triplicate.

[2] = biological target: T1, specific lipoxin receptors (Homo sapiens, UniProt P25090); assay: [3H]LXA4 ligand binding to human neutrophils
T1 sequence (P25090 1-351): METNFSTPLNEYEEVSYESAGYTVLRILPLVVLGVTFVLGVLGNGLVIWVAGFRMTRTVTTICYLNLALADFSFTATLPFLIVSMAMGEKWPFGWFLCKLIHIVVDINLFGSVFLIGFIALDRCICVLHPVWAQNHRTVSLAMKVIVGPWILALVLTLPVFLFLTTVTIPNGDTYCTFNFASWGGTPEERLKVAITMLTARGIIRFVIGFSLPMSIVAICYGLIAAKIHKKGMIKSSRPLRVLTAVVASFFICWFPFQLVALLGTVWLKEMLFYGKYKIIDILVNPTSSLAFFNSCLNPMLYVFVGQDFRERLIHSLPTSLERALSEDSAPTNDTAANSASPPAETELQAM
Description: as §1

[3] = tested on: unstimulated human erythrocytes; assay: [3H]LXA4 uptake into erythrocytes; format: cell-based; conditions: 0.5 mM DISA, 5 nM LXA4
Description: Red Blood Cells (RBC): RBC were obtained directly from the heparinized blood of normal human donors. During repeated (four) washing steps, the uppermost portion of the cell pellets was aspirated and discarded to remove residual minor contamination of buffy coat cells.
(§2) Human red cells, lymphocytes, and platelets were isolated from peripheral blood as described under Methods. Undifferentiated HL-60 cells were grown in culture according to standard protocols. Differentiated HL-60 cells were obtained by exposing cells to 1 μM retinoic acid for 5 days in culture. After harvesting and isolation, all cells were kept in the standard medium for 1 hour at 37° C. prior to assay. […] Results represent the means±SEM of three-four separate experiments for each cell type.

[4] = tested on: unstimulated human lymphocytes; assay: [3H]LXA4 uptake into lymphocytes; format: cell-based; conditions: 0.5 mM DISA, 5 nM LXA4
Description: Lymphocvtes: The lymphocyte-rich interface layer was taken at the Ficoll-Hypaque gradient step of the neutrophil purification procedure. Platelets were removed by slow-speed centrifugation (see below) and contaminating monocytes and neutrophils by adherence to plastic Petri dishes for 1 hour at 37 ° C.
as §2

[5] = tested on: unstimulated human platelets; assay: [3H]LXA4 uptake into platelets; format: cell-based; conditions: 0.5 mM DISA, 5 nM LXA4
Description: Platelets: Platelets were purified to homogeneity from acid citrate dextrose-treated blood according to established protocols (Romano, M. and Serhan, C. N. (1992) Biochemistry 31:8269-8277).
as §2

[6] = tested on: undifferentiated HL-60 cells; assay: [3H]LXA4 uptake into undifferentiated HL-60 cells; format: cell-based, human; conditions: 0.5 mM DISA, 5 nM LXA4
Description: (§3) HL-60 Cells: HL-60 cells were seeded into RPMI medium supplemented with 100 U/ml penicillin, 100 μg/ml streptomycin, and 10% fetal calf serum (Hyclone, Logan, Utah) and grown at 37° C. in 250 ml flasks in a 5% CO2 /95% air atmosphere. Cells were induced to differentiate toward a neutrophil-like phenotype by exposure to 1 μM retinoic acid for 5 days.
as §2

[7] = tested on: retinoic acid-induced HL-60 cells; assay: [3H]LXA4 uptake into retinoic acid-induced HL-60 cells; format: cell-based, human; conditions: 0.5 mM DISA, 5 nM LXA4
Description: as §3, §2

human neutrophils [8] = conditions: 500 µM
lipoxin transport system [9] = assay: [3H]LXA4 influx into human neutrophils (unidirectional tracer flux); conditions: for final [3H]LXA4 uptake (combined data) / initial [3H]LXA4 influx rate (combined data): combined data: Control, 0.4 mM SITS, 1 mM probenecid, Na+-free medium, high K+ medium; for effect on [3H]LXA4 influx: probenecid 1 mM, SITS 0.4 mM
neutrophils = assay: Phagocytosis of opsonized sheep red blood cells by neutrophils; format: cell-based, human; conditions: 100 nM or 1000 nM, pH 7.4, 37° C., 30 minutes
Description: Neutrophils were prepared as described in the general methodology and suspended at a concentration of 10×10^6 -15×10^6 cells/ml in Hepes Hanks buffer, pH 7.4, supplemented with 1 mg/ml BSA, 1 mg/ml glucose, 0.5 mM MgCl2 and 1.0 mM CaCl2 --2H2 O.
The sheep red blood cells (SRBCs) were prepared by washing the cells with 1× veronal-buffered saline (VBS), incubating the cells with a 1:500 dilution of rabbit anti-SRBC IgG antibody at 37° C. for 15 minutes, centrifuging the cells at 2000 rpm for 5 minutes at 4° C. and washing the cells twice with 1×VBS. SRBCs were resuspended at a final concentration of 10×10^8 cells/ml.
Each component was pipetted separately to the bottom of a 12×75 mm test tube to allow thorough mixing of the components.
To each 100 μl mixture was added 15 μl of opsonized SRBCs to start the phagocytosis reaction. The tubes were vortexed and placed in a 37° C. incubator for 30 minutes. After 30 minutes, the tubes were placed on ice to stop the reaction.
Non-phagocytosed SRBCs were lysed by adding 1.0 ml of 0.83% NH4 Cl to each tube, with shaking, and centrifuging the tubes quickly at 1500 rpm for 3 minutes. The supernatant was removed and the pellets were resuspended in 30 gl of PBS. The 30 μl solution was placed onto a polylysine-coated microscope slide and after 15 minutes the excess solution was removed from the slide. The cells on the slide were fixed with 1% glutaraldehyde for 5 minutes and then the excess glutaraldehyde was removed. The cells were stained with Giemsa Stain by immersing the slide in the stain for 25 minutes, rinsing the slide with water and allowing the slide to dry overnight.
The slides were examined with a light microscope at 100×power. SRBCs which were phagocytosed by neutrophils were visible as yellow cells within blue-stained neutrophils. The results for each reaction were expressed as a phagocytic index, representing the number of SRBCs phagocytosed per 100 neutrophils. […]

protein kinase C (PKC) = conditions: about 10 nM; cited from earlier work
[10] = nM levels; cited from earlier work
[11] = tested on: H+ +lactate- cotransporter; conditions: cited from earlier work
sulfate carrier = conditions: cited from earlier work
lipoxin transport system [12] = assay: Irreversible inhibition of [3H]LXA4 influx after pretreatment of neutrophils with sulfhydryl-reactive agents; format: cell-based, human
Cl-/HCO3- exchanger = conditions: cited from earlier work

Question: With `O=C(O)c1cc(I)cc(I)c1O` [DISA, 3,5-diiodo-salicylic acid] as the compound, how does the “[3H]LXA4 ME Influx in presence of drug” value (human neutrophils [1]; 0.5 mM drug) read?
Answer: 481 ± 170 fmol/10^6 cells/min

Question: And the “effect of drugs on [3H]LXA4 ME influx” value (human neutrophils [1]; DISA 0.5 mM, PCP 0.4 mM, mersalyl 0.5 mM)?
Answer: completely resistant

Question: And the “effect on binding of lipoxin to specific receptors” value [2]?
Answer: not inhibitable

Question: What about the “[3H]LXA4 Binding, non-specific, in presence of drug” value ([2]; 0.5 mM drug, + unlabeled LXA4 0.3 μM) of the same compound?
Answer: 0.41 ± 0.05 fmol/10^6 cells

Question: And the “[3H]LXA4 Binding, total, in presence of drug” value ([2]; 0.5 mM drug, no unlabeled LXA4)?
Answer: 1.23 ± 0.08 fmol/10^6 cells

Question: And the “[3H]LXA4 Uptake Rate in the presence of DISA” value (from here on “[3H]LXA4 Uptake Rate”) [3]?
Answer: 0.0019 ± 0.0008 fmol/10^6 cells/min

Question: What about the “[3H]LXA4 Uptake Rate” value [4] of the same compound?
Answer: 0.0053 ± 0.0036 fmol/10^6 cells/min

Question: What about the “[3H]LXA4 Uptake Rate” value [5] of the same compound?
Answer: -0.0005 ± 0.0015 fmol/10^6 cells/min

Question: What about the “[3H]LXA4 Uptake Rate” value [6] of the same compound?
Answer: 0.12 ± 0.02 fmol/10^6 cells/min

Question: What about the “[3H]LXA4 Uptake Rate” value [7] of the same compound?
Answer: 0.08 ± 0.02 fmol/10^6 cells/min

Question: What about the “efflux final value (relative cell content, combined data set)” value (human neutrophils [8]) of the same compound?
Answer: 0.46±0.02

Question: What about the “efflux rate coefficient (combined data set)” value (human neutrophils [8]) of the same compound?
Answer: 0.098 ± 0.008 min⁻¹

Question: What about the “inhibition of FMLP-enhanced [3H]LXA4 uptake” value (lipoxin transport system [9]; 100 nM FMLP + DISA) of the same compound?
Answer: completely sensitive to inhibition

Question: What about the “inhibition of PMA-induced enhancement of [3H]LXA4 influx” value (lipoxin transport system [9]; 100 nM PMA + DISA) of the same compound?
Answer: competely sensitive to inhibition

Question: What about the “[3H]LXA4 uptake by 1 min of incubation” value (lipoxin transport system [9]; 0.5 mM DISA) of the same compound?
Answer: 2.9 fmol/10^6 cells

Question: What about the “effect on transport system-mediated component of uptake” value (lipoxin transport system [9]; 0.5 mM DISA) of the same compound?
Answer: completely blocks; also recorded: markedly sensitive; also recorded: blocked

Question: What about the “slope of straight-line fit of [3H]LXA4 uptake in presence of drug” value (lipoxin transport system [9]; 0.5 mM DISA, 5 nM LXA4, not distinguishable from zero) of the same compound?
Answer: 0.0046±0.0051 fmol/10^6 cells/min

Question: What about the “cell-associated [3H]LXA4, average of all data points” value (lipoxin transport system [9]; 0.5 mM DISA, 1-30 min) of the same compound?
Answer: 2.88 fmol/10^6 cells

Question: And the “inhibition of [3H]LXA4 influx” value (lipoxin transport system [9]; 0.5 mM drug)?
Answer: > 80%

Question: And the “effect on uptake of [3H]LXA4” value (lipoxin transport system [9]; each at 0.2-0.5 mM)?
Answer: inhibited the uptake

Question: And the IC50 (lipoxin transport system [9]; read-out: K0.5, concentration at which 50% of lipoxin transport is inhibited, drug 0-500 μM, uptake at 10 and 20 min, Michaelis-Menten inhibition kinetics)?
Answer: 12 ± 2 µM

Question: For `CCCCC[C@H](O)[C@H](O)/C=C/C=C/C=C\C=C\[C@@H](O)CCCC(=O)O` [LXB4, lipoxin B4], which “effect on neutrophil phagocytosis, phagocytic index” value (neutrophils) is on record?
Answer: inhibit phagocytosis

Question: What about the “effect on PKC activity” value (protein kinase C (PKC)) of the same compound?
Answer: enhance

Question: And the “vasodilation” value [10]?
Answer: elicit prompt vasodilation

Question: For `CCN1C(=O)C=CC1=O` [NEM, N-ethylmaleimide], which “effect on H+ +lactate- cotransport / lactic acid fluxes” value [11] is on record?
Answer: completely blocked

Question: What about the “effect of SH-reactive compounds on [3H]LXA4 influx” value (lipoxin transport system [9]; 1 mM NEM, 0.4 mM iodoacetate) of the same compound?
Answer: lacked efficacy; also recorded: do not inhibit

Question: Which results are given for `CC(=O)Nc1ccc(C=Cc2ccc(N=C=S)cc2S(=O)(=O)O)c(S(=O)(=O)O)c1` [SITS, 4-acetamido-4'-isothiocyanostilbene-2,2'-disulfonic acid]?
Answer: sensitivity of the sulfate carrier (sulfate carrier): very sensitive; final [3H]LXA4 uptake (combined data) (lipoxin transport system [9]; 5 nM LXA4): 7.26±0.26 fmol/10^6 cells; initial [3H]LXA4 influx rate (combined data) (lipoxin transport system [9]; 5 nM LXA4): 0.57±0.09 fmol/10^6 cells/min; effect on [3H]LXA4 influx (lipoxin transport system [9]): no apparent impact; also recorded: not inhibited

Question: Which results are given for `O=C(O)c1cc[c]([Hg+])cc1.[OH-]` [pHMB, p-hydroxymercuribenzoate]?
Answer: effect on binding of lipoxin to specific receptors [2]: not inhibitable; % Inhibition of Transport (irreversible) (lipoxin transport system [12]): ~ 65% and 66 ± 4%; effect on Cl-/HCO3- exchange (Cl-/HCO3- exchanger): resistant

Question: For `CCCN(CCC)S(=O)(=O)c1ccc(C(=O)O)cc1` [probenecid], which “sensitivity of the sulfate carrier” value (sulfate carrier) is on record?
Answer: very sensitive

Question: And the “final [3H]LXA4 uptake (combined data)” value (lipoxin transport system [9]; 5 nM LXA4)?
Answer: 7.26±0.26 fmol/10^6 cells

Question: And the “initial [3H]LXA4 influx rate (combined data)” value (lipoxin transport system [9]; 5 nM LXA4)?
Answer: 0.57±0.09 fmol/10^6 cells/min

Question: And the “effect on [3H]LXA4 influx” value (lipoxin transport system [9])?
Answer: no apparent impact; also recorded: not inhibited
